Measurements from PubChem BioAssay AID248 (DTP/NCI, 2004).
Inconclusive results and toxic doses are left out. No stated cut-off is given here; in the data, active means T/C of 150% or more; inactive means T/C below 125%. Peptide text beside a SMILES is read from it.

System: L1210 leukemia ip in BDF1 mice, survival T/C
Assay: NCI In Vivo Anticancer Drug Screen. Data for tumor model L1210 Leukemia (intraperitoneal) in B6D2F1 (BDF1) mice
Settings: endpoint: mean survival time, higher = longer survival
Outline: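 Tumor cells were implanted, animals were treated, and survival was followed. The result divides the treated measurement by the vehicle-control measurement.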

[1] = dose: 50.0 mg/kg/injection, schedule: Q04DX003 (ip), vehicle: saline
[2] = dose: 15.0 mg/kg/injection, schedule: Q01DX Z (ip), vehicle: methylcellulose (MC)
[3] = dose: 100.0 mg/kg/injection, schedule: Q01DX009 (ip), vehicle: Klucel (hydroxypropylcellulose) (HPC)
[4] = dose: 100.0 mg/kg/injection, schedule: Q04DX003 (ip), vehicle: Klucel (hydroxypropylcellulose) (HPC)
[5] = dose: 200.0 mg/kg/injection, schedule: Q04DX003 (ip), vehicle: Klucel (hydroxypropylcellulose) (HPC)
[6] = dose: 400.0 mg/kg/injection, schedule: Q04DX003 (ip), vehicle: Klucel (hydroxypropylcellulose) (HPC)
[7] = dose: 100.0 mg/kg/injection, schedule: Q01DX001 (ip), vehicle: Klucel (hydroxypropylcellulose) (HPC)

Measured: T/C

Cc1ccc(S(=O)(=O)NC(=O)Oc2c(C(C)C)cccc2C(C)C)cc1
inactive: [1] 110 % of control | dose: 100.0 mg/kg/injection, schedule: Q04DX003 (ip), vehicle: saline 110 % of control | dose: 200.0 mg/kg/injection, schedule: Q04DX003 (ip), vehicle: saline 102 % of control

O=C(Nc1ccc(NC2=NCCN2)cc1)c1cc(C(=O)Nc2ccc(NC3=NCCN3)cc2)cc([N+](=O)[O-])c1
inactive: dose: 1.87 mg/kg/injection, schedule: Q01DX Z (ip), vehicle: saline 113 % of control | dose: 3.75 mg/kg/injection, schedule: Q01DX Z (ip), vehicle: saline 109 % of control | dose: 7.5 mg/kg/injection, schedule: Q01DX Z (ip), vehicle: saline 115 % of control | [2] 94 % of control | dose: 15.0 mg/kg/injection, schedule: Q01DX Z (ip), vehicle: saline 105 % of control

COc1ccc(CCN2C(=O)c3cccc4c(Br)ccc(c34)C2=O)cc1
inactive: dose: 100.0 mg/kg/injection, schedule: Q04DX002 (ip), vehicle: saline 93 % of control | dose: 200.0 mg/kg/injection, schedule: Q04DX002 (ip), vehicle: saline 93 % of control | dose: 400.0 mg/kg/injection, schedule: Q04DX002 (ip), vehicle: saline 97 % of control

CC(O)c1ccc(Cl)c(Cl)c1 (stereo unspecified)
inactive: [3] 91 % of control | [4] 98 % of control | dose: 200.0 mg/kg/injection, schedule: Q01DX009 (ip), vehicle: Klucel (hydroxypropylcellulose) (HPC) 90 % of control | [5] 109 % of control | dose: 400.0 mg/kg/injection, schedule: Q01DX009 (ip), vehicle: Klucel (hydroxypropylcellulose) (HPC) 101 % of control | [6] 104 % of control

O=[N+]([O-])c1ccc(N/N=C2/CCSc3ccccc32)cc1
inactive: dose: 100.0 mg/kg/injection, schedule: Q04DX003 (ip), vehicle: acetone 100 % of control | dose: 200.0 mg/kg/injection, schedule: Q04DX003 (ip), vehicle: acetone 99 % of control | dose: 400.0 mg/kg/injection, schedule: Q04DX003 (ip), vehicle: acetone 88 % of control

OCC(O)C1OCOC2COCOC21 (stereo unspecified)
inactive: dose: 222.0 mg/kg/injection, schedule: Q01DX Z (ip), vehicle: saline 98 % of control | dose: 333.0 mg/kg/injection, schedule: Q01DX Z (ip), vehicle: saline 117 % of control | dose: 500.0 mg/kg/injection, schedule: Q01DX Z (ip), vehicle: saline 105 % of control

CC(=O)Nc1ccc(S(=O)(=O)N=S(c2ccccc2)c2ccccc2)cc1
inactive: dose: 50.0 mg/kg/injection, schedule: Q01DX001 (ip), vehicle: carboxymethylcellulose (CMC) 101 % of control | dose: 100.0 mg/kg/injection, schedule: Q01DX001 (ip), vehicle: carboxymethylcellulose (CMC) 101 % of control | dose: 200.0 mg/kg/injection, schedule: Q01DX001 (ip), vehicle: carboxymethylcellulose (CMC) 94 % of control | dose: 400.0 mg/kg/injection, schedule: Q01DX001 (ip), vehicle: carboxymethylcellulose (CMC) 97 % of control

CCSc1ccc2c(cc1=O)C(NC(=S)Nc1ccccc1)CCc1cc(OC)c(OC)c(OC)c1-2 (stereo unspecified)
inactive: dose: 100.0 mg/kg/injection, schedule: Q04DX003 (ip), vehicle: carboxymethylcellulose (CMC) 102 % of control | dose: 200.0 mg/kg/injection, schedule: Q04DX003 (ip), vehicle: carboxymethylcellulose (CMC) 107 % of control

CC1(C)C2CCC1(CBr)C(=O)C2 (stereo unspecified)
inactive: dose: 200.0 mg/kg/injection, schedule: Q04DX002 (ip), vehicle: Klucel (hydroxypropylcellulose) (HPC) 100 % of control

O=C(O)c1ccccc1Nc1ccccc1
inactive: [7] 102 % of control | dose: 200.0 mg/kg/injection, schedule: Q01DX001 (ip), vehicle: Klucel (hydroxypropylcellulose) (HPC) 102 % of control | dose: 400.0 mg/kg/injection, schedule: Q01DX001 (ip), vehicle: Klucel (hydroxypropylcellulose) (HPC) 97 % of control

CC(O)C(NC(=O)C(N)CCCN=C(N)N)C(=O)NC(Cc1ccccc1)C(=O)O (stereo not drawn) (H-Arg-Thr-Phe-OH; configuration not given here)
inactive: dose: 18.75 mg/kg/injection, schedule: Q04DX002 (ip), vehicle: saline with Tween-80 101 % of control | dose: 37.5 mg/kg/injection, schedule: Q04DX002 (ip), vehicle: saline with Tween-80 97 % of control | dose: 75.0 mg/kg/injection, schedule: Q04DX002 (ip), vehicle: saline with Tween-80 93 % of control | dose: 150.0 mg/kg/injection, schedule: Q04DX002 (ip), vehicle: saline with Tween-80 97 % of control

NS(=O)(=O)c1ccc(N=Nc2ccc([As](=O)(O)O)cc2)cc1
inactive: dose: 100.0 mg/kg/injection, schedule: Q01DX001 (ip), vehicle: saline 98 % of control | dose: 200.0 mg/kg/injection, schedule: Q01DX001 (ip), vehicle: saline 98 % of control | dose: 400.0 mg/kg/injection, schedule: Q01DX001 (ip), vehicle: saline 98 % of control

Cc1ccc(NC(=O)c2ccc(C)c(N)c2)c(C)c1
inactive: dose: 100.0 mg/kg/injection, schedule: Q01DX009 (ip), vehicle: gum acacia 100 % of control | dose: 100.0 mg/kg/injection, schedule: Q04DX003 (ip), vehicle: gum acacia 98 % of control | dose: 200.0 mg/kg/injection, schedule: Q01DX009 (ip), vehicle: gum acacia 87 % of control | dose: 200.0 mg/kg/injection, schedule: Q04DX003 (ip), vehicle: gum acacia 102 % of control | dose: 400.0 mg/kg/injection, schedule: Q01DX009 (ip), vehicle: gum acacia 87 % of control | dose: 400.0 mg/kg/injection, schedule: Q04DX003 (ip), vehicle: gum acacia 98 % of control

CC1(Cl)C(=O)NC(=O)NC1=O
inactive: dose: 25.0 mg/kg/injection, schedule: Q04DX003 (ip), vehicle: saline 96 % of control | [1] 96 % of control

O=C(Nc1cccc(C(=O)Nc2ccc(C3=NCCN3)cc2)c1)Nc1cccc(C(=O)Nc2ccc(C3=NCCN3)cc2)c1
inactive: [2] 94 % of control | dose: 30.0 mg/kg/injection, schedule: Q01DX Z (ip), vehicle: methylcellulose (MC) 105 % of control | dose: 60.0 mg/kg/injection, schedule: Q01DX Z (ip), vehicle: methylcellulose (MC) 100 % of control | dose: 120.0 mg/kg/injection, schedule: Q01DX Z (ip), vehicle: methylcellulose (MC) 102 % of control | dose: 125.0 mg/kg/injection, schedule: Q01DX Z (ip), vehicle: water 93 % of control | dose: 250.0 mg/kg/injection, schedule: Q01DX Z (ip), vehicle: water 102 % of control | dose: 500.0 mg/kg/injection, schedule: Q01DX Z (ip), vehicle: water 101 % of control

O=c1[nH]c(=O)n(O)c2nc[nH]c12
inactive: dose: 100.0 mg/kg/injection, schedule: Q04DX003 (ip), vehicle: saline with Tween-80 92 % of control

C[N+](C)(C)C1=CC=CC=C1.Br[Br-]Br
inactive: dose: 12.5 mg/kg/injection, schedule: Q01DX009 (ip), vehicle: other 98 % of control | dose: 12.5 mg/kg/injection, schedule: Q04DX003 (ip), vehicle: Klucel (hydroxypropylcellulose) (HPC) 102 % of control | dose: 25.0 mg/kg/injection, schedule: Q01DX009 (ip), vehicle: other 98 % of control | dose: 25.0 mg/kg/injection, schedule: Q01DX009 (ip), vehicle: saline 104 % of control | dose: 25.0 mg/kg/injection, schedule: Q04DX003 (ip), vehicle: Klucel (hydroxypropylcellulose) (HPC) 102 % of control | dose: 50.0 mg/kg/injection, schedule: Q01DX009 (ip), vehicle: other 95 % of control | dose: 50.0 mg/kg/injection, schedule: Q01DX009 (ip), vehicle: saline 105 % of control | dose: 50.0 mg/kg/injection, schedule: Q04DX003 (ip), vehicle: Klucel (hydroxypropylcellulose) (HPC) 101 % of control | [7] 101 % of control | [4] 104 % of control

O=C(Nc1cc(Cl)c(Oc2ccc(Cl)cc2)cc1S(=O)(=O)O)Nc1cccc(Cl)c1Cl
inactive: dose: 50.0 mg/kg/injection, schedule: Q01DX009 (ip), vehicle: Klucel (hydroxypropylcellulose) (HPC) 109 % of control | [3] 104 % of control

CCCCNc1nc(SC)nc2nc[nH]c12
inactive: [4] 95 % of control | [5] 96 % of control | [6] 91 % of control
